pIC50: −log10 of the molar value.
Tests used:
Assay type in all cases: biochemical
[1] = molecular target: T1, doubly truncated TPH1 (ΔNH102-ΔCOOH402) (Homo sapiens, UniProt P17752); experiment: Tryptophan hydroxylase enzymatic activity assay (HPLC quantification of 5-OH-Trp), doubly truncated TPH1
T1 construct: The ΔNH102-ΔCOOH402 human TPH1 gene was cloned; six-His (C); made in house

[2] = molecular target: T2, WT full-length TPH2 (Homo sapiens, UniProt Q8IWU9); experiment: Tryptophan hydroxylase enzymatic activity assay, WT full-length TPH2; conditions: mean (95% confidence interval), three experiments in duplicate
T2 construct: both the doubly truncated TPH1 protein and WT full-length TPH2 protein; made in house
T2 sequence (Q8IWU9 1-490): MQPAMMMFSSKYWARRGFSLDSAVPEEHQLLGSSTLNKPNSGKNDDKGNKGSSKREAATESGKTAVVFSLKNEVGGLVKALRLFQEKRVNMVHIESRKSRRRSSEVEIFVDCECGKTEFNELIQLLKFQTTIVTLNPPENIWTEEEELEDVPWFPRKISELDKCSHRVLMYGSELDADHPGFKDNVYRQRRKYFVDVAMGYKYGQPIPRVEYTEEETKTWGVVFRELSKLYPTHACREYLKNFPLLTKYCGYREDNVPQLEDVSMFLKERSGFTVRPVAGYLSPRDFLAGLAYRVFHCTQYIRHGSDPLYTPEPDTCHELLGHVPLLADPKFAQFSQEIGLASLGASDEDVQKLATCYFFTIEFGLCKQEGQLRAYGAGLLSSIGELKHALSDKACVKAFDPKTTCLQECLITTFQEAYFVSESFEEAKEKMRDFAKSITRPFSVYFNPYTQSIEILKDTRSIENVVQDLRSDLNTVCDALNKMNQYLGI

[3] = molecular target: T3, full-length WT TPH1 (Homo sapiens, UniProt P17752); experiment: Tryptophan hydroxylase enzymatic activity assay, full-length WT TPH1; conditions: (95% confidence interval)
T3 construct: made in house
T3 sequence (P17752 1-444): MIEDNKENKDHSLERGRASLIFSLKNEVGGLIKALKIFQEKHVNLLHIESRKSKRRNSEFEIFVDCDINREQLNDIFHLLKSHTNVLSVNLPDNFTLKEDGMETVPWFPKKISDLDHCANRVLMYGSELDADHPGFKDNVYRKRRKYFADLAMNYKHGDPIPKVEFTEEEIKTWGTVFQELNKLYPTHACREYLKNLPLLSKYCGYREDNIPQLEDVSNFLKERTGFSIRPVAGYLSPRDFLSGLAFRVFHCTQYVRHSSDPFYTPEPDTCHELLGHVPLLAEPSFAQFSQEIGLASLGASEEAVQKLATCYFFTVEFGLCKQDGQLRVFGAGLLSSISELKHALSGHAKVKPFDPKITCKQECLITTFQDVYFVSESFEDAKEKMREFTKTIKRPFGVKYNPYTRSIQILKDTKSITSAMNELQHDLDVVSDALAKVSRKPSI
Text: The […] human TPH1 gene was cloned into the pET23a vector (six-His C-terminal fusion; Merck KGaA, Darmstadt, Germany) between the NdeI and XhoI restriction sites, and expressed and purified as described previously ([Wang et al., 2002]; [Betari et al., 2020]). Truncated TPH1 was used since the full-length enzyme tends to aggregate in bacteria and yeast extracts and during purification ([Wang et al., 2002]; [McKinney et al., 2005]), resulting in a much lower protein yield compared to the truncated version. Enzymatic activity of truncated TPH1 is equal to that of the full-length protein ([Betari et al., 2020]). […] Full-length WT TPH1 and TPH2 were expressed as N-terminal six-His-maltose-binding protein fusion proteins in pETM-41 and were cleaved and purified as described previously ([McKinney et al., 2004]; [Winge et al., 2007]). Human WT PAH and TH were expressed and isolated as described previously ([[…] et al., 2012]; [Bezem et al., 2016]). […] Control experiments were performed in the presence of 1% DMSO in the absence of ligand. […] 5-hydroxy tryptophan (5-OH-Trp) was quantified using High Performance Liquid Chromatography (HPLC) essentially as described previously with minor modifications ([McKinney et al., 2004]; [[…] et al., 2020]).

[4] = molecular target: T1, doubly truncated TPH1 (ΔNH102-ΔCOOH402); experiment: Mechanism of action and kinetics analysis of TPH1 inhibition (Michaelis-Menten)
Procedure: 5-OH-Trp formation was measured either at a fixed concentration (200 µM) of the cofactor, BH4, and varying concentrations (0.625–20 µM) of the substrate, L-Trp, or in the presence of varying concentrations of BH4 (2.4–200 µM) and a fixed concentration (20 µM) of L-Trp. Kinetic parameters were estimated by fitting the Michaelis-Menten model to the data using nonlinear regression.
Human doubly truncated TPH1 (ΔNH102-ΔCOOH402) was used for kinetic protein-ligand interaction studies. The enzyme assays were performed as described above. […] When enzyme activity was measured as a function of substrate (L-Trp) concentration (0.625–20 µM), the concentration of the cofactor (BH4) was fixed at 200 µM.

COc1ccc2[nH]c([S+]([O-])Cc3ncc(C)c(OC)c3C)nc2c1 (centres unmarked) [Omeprazole] was tested, and the “reduction of TPH1 activity” value ([1]; 100 µM compound, preliminary activity assay) was “more than 50%”, the pIC50 ([1]; doubly truncated TPH1, 20 µM L-Trp, 200 µM BH4, 37°C, mean (95% confidence interval), three experiments in duplicate) was 5.51 and the pIC50 [2] was 5.37. For the same molecule, the pIC50 [3] was 5.45, the Vmax ([4]; (A) L-Trp 0.625–20 µM, BH4 200 µM, omeprazole 1 µM) was 24.96 (23.18–26.74) µmol/min/mg and the Vmax ([4]; (A) L-Trp 0.625–20 µM, BH4 200 µM, omeprazole 10 µM) was 21.08 (18.84–23.32) µmol/min/mg. The Vmax ([4]; (A) L-Trp 0.625–20 µM, BH4 200 µM, omeprazole 100 µM) was 7.03 (6.07–7.98) µmol/min/mg, the Vmax ([4]; (B) BH4 2.4–200 µM, L-Trp 20 µM, omeprazole 1 µM) was 39.93 (37.18–42.69) µmol/min/mg and the Vmax ([4]; (B) BH4 2.4–200 µM, L-Trp 20 µM, omeprazole 10 µM) was 31.06 (28.90–33.21) µmol/min/mg. The Vmax ([4]; (B) BH4 2.4–200 µM, L-Trp 20 µM, omeprazole 100 µM) was 21.11 (18.96–23.26) µmol/min/mg and the “mode of TPH1 inhibition” value ([4]; with respect to L-Trp and to BH4) was “non-competitive inhibitor”.
